From ChEMBL document CHEMBL1150977, “A quantitative analysis of kinase inhibitor selectivity” (Nat Biotechnol, 2008)

Tests used:
[1] = target: Mitogen-activated protein kinase kinase kinase 11 (Homo sapiens, UniProt Q16584)
[2] = target: T1, Serine/threonine-protein kinase 4 (Homo sapiens, UniProt Q13043)
T1 sequence (Q13043 whole entry): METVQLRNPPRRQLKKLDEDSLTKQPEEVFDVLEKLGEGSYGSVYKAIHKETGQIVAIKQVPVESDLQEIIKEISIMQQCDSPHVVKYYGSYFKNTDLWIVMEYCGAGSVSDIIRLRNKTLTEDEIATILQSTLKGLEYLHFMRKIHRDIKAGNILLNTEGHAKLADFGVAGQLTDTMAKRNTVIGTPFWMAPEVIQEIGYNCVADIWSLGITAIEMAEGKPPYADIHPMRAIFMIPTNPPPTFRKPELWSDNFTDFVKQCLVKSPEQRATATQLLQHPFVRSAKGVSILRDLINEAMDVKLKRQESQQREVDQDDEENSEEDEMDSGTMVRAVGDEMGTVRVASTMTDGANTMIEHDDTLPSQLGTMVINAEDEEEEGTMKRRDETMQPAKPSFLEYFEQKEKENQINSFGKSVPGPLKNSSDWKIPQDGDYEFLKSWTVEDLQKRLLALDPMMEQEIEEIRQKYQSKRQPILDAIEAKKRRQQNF

[3] = target: Calcium/calmodulin-dependent protein kinase type II subunit delta (Homo sapiens, UniProt Q13557)
Sequence of Calcium/calmodulin-dependent protein kinase type II subunit delta (Q13557 whole entry): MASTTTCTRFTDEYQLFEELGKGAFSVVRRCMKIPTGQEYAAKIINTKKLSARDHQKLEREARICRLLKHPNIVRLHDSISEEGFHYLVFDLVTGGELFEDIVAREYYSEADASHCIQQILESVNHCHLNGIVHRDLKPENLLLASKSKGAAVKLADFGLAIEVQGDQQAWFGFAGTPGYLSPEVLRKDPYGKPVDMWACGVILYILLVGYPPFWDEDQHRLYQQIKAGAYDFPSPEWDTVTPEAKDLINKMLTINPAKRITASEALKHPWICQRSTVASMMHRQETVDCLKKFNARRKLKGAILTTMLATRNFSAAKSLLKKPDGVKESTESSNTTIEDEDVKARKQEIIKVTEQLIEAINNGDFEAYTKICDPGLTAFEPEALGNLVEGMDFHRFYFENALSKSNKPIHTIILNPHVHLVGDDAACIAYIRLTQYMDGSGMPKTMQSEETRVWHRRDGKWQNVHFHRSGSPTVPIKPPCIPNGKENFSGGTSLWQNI

[4] = target: Vascular endothelial growth factor receptor 1 (Homo sapiens, UniProt P17948)
Sequence of Vascular endothelial growth factor receptor 1 (P17948 whole entry): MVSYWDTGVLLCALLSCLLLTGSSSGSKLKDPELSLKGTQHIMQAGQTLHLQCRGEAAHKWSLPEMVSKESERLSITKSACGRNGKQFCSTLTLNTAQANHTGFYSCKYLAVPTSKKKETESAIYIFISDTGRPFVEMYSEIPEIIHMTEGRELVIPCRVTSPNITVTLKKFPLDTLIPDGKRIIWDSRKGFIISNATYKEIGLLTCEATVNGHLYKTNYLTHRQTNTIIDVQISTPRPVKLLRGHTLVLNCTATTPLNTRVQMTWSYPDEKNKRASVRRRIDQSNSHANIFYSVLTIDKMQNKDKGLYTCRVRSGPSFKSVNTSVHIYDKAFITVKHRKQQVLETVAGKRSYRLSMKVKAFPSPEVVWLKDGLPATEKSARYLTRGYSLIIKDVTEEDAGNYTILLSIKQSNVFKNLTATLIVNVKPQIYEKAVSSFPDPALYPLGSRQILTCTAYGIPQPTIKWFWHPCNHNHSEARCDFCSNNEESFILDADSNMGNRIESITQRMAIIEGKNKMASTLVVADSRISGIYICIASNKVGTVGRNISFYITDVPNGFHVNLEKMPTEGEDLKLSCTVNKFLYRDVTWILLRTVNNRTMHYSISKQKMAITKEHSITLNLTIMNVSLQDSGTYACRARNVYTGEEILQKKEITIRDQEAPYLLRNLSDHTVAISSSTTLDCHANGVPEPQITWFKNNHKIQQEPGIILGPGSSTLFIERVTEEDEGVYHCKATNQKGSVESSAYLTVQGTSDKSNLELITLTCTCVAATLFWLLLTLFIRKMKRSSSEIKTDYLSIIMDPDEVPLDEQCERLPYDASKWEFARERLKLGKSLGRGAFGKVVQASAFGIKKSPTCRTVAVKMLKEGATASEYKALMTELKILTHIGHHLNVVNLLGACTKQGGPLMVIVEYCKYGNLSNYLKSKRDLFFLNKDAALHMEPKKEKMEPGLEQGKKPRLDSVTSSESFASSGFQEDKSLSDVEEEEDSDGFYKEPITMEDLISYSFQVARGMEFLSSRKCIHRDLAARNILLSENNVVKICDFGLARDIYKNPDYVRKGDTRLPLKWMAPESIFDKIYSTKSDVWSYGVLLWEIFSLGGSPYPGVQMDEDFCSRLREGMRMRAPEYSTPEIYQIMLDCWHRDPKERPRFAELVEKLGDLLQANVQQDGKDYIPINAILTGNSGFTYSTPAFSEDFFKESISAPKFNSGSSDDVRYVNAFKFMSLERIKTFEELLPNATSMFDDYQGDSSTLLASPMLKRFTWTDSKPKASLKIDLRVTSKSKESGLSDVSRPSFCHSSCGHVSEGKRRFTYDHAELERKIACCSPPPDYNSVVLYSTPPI

[5] = target: Cyclin-dependent kinase 18 (Homo sapiens, UniProt Q07002)
Sequence of Cyclin-dependent kinase 18 (Q07002 whole entry): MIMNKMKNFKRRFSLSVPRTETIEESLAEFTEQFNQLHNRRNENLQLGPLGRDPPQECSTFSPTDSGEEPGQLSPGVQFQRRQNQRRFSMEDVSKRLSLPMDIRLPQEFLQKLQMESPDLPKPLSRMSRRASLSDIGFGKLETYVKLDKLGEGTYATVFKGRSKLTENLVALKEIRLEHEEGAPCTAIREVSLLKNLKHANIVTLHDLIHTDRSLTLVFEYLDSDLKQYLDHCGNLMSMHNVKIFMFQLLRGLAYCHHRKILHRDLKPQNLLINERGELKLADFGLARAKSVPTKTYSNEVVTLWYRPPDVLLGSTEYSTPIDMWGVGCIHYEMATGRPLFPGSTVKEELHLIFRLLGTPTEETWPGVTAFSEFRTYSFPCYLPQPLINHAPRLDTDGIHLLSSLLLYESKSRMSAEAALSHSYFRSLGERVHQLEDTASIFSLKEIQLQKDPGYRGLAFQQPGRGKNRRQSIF

[6] = target: T2, Serine/threonine-protein kinase 36 (Homo sapiens, UniProt Q9NRP7)
T2 sequence (Q9NRP7 whole entry): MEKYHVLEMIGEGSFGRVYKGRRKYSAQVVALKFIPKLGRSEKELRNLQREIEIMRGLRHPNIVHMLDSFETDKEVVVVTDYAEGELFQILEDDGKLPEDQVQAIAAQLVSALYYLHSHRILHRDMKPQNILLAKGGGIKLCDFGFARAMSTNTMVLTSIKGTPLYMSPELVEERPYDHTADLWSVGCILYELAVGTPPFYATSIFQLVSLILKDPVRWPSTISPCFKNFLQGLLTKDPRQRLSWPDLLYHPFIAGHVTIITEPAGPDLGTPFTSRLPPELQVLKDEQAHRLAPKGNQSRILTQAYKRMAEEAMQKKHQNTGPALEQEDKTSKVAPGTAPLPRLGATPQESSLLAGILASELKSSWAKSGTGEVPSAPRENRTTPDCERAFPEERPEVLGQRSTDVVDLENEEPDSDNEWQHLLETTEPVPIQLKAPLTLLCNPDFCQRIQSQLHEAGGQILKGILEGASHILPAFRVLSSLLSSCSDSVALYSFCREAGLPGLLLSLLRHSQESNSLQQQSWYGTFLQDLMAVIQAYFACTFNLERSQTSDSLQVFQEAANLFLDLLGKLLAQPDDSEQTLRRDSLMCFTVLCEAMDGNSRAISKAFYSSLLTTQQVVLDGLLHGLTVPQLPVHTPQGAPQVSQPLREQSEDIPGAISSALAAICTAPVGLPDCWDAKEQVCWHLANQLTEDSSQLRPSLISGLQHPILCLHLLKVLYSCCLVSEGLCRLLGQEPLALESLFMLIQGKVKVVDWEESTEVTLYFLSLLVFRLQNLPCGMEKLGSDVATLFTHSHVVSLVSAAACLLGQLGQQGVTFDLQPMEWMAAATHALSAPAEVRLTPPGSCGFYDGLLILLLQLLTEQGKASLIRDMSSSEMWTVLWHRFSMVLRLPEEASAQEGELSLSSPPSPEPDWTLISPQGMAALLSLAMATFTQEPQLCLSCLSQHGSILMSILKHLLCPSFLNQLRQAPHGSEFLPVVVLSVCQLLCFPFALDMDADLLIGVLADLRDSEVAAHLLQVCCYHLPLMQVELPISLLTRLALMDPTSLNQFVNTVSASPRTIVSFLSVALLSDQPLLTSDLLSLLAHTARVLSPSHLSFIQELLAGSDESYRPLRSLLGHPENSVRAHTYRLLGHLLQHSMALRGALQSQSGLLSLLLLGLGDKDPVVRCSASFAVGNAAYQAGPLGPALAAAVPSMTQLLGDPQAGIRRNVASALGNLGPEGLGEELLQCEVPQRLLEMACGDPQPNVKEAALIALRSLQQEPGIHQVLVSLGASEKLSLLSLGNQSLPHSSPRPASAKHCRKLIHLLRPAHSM

[7] = target: Receptor-type tyrosine-protein kinase FLT3 (Homo sapiens, UniProt P36888, ITD)
[8] = target: Mitogen-activated protein kinase 3 (Homo sapiens, UniProt P27361)
Sequence of Mitogen-activated protein kinase 3 (P27361 whole entry): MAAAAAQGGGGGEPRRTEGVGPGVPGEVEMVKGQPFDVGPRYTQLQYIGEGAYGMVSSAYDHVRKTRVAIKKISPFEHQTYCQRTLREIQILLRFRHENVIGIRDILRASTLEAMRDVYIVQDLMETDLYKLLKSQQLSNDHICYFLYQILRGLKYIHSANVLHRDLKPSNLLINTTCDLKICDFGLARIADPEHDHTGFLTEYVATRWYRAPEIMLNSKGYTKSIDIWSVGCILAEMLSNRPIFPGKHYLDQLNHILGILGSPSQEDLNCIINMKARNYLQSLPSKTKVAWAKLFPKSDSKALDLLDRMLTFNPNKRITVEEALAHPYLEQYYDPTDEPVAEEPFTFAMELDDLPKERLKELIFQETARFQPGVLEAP

[9] = target: T3, Serine/threonine-protein kinase Chk1 (Homo sapiens, UniProt O14757)
T3 sequence (O14757 whole entry): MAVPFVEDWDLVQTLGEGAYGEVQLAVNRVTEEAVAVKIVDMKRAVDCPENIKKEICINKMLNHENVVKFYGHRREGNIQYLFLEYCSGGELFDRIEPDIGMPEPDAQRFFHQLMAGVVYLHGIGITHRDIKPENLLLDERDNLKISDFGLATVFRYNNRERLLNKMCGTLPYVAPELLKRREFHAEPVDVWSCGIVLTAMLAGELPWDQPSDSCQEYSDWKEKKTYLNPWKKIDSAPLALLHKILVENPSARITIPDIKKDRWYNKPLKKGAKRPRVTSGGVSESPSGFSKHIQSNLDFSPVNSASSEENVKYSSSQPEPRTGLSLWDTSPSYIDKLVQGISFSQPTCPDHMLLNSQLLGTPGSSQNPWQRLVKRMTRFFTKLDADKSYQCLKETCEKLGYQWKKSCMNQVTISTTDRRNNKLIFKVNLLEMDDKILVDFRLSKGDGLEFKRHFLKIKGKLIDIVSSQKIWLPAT

[10] = target: Serine/threonine-protein kinase B-raf (Homo sapiens, UniProt P15056, V600E)
Sequence of Serine/threonine-protein kinase B-raf (P15056 2-766 V600E limits assumed): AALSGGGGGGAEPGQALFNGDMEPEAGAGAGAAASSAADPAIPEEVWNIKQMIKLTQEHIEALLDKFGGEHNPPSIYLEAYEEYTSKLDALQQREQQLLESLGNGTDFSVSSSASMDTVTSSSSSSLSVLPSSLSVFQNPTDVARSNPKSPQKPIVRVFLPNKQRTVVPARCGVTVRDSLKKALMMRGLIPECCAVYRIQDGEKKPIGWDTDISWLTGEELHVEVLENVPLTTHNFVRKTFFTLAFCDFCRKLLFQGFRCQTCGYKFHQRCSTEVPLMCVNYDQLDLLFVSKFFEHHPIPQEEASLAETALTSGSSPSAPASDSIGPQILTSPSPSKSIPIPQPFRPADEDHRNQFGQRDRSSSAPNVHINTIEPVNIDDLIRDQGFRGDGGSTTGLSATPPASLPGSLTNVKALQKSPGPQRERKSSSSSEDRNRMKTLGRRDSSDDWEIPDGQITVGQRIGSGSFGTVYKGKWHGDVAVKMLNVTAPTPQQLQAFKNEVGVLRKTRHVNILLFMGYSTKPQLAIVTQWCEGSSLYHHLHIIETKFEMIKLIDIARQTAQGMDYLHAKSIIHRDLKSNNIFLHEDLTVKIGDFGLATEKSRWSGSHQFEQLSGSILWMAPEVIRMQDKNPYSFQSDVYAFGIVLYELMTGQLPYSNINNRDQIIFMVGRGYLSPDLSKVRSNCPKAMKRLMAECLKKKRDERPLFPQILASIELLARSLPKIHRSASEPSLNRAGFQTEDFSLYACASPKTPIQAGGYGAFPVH

Sequence of Mitogen-activated protein kinase kinase kinase 11 (Q16584 whole entry): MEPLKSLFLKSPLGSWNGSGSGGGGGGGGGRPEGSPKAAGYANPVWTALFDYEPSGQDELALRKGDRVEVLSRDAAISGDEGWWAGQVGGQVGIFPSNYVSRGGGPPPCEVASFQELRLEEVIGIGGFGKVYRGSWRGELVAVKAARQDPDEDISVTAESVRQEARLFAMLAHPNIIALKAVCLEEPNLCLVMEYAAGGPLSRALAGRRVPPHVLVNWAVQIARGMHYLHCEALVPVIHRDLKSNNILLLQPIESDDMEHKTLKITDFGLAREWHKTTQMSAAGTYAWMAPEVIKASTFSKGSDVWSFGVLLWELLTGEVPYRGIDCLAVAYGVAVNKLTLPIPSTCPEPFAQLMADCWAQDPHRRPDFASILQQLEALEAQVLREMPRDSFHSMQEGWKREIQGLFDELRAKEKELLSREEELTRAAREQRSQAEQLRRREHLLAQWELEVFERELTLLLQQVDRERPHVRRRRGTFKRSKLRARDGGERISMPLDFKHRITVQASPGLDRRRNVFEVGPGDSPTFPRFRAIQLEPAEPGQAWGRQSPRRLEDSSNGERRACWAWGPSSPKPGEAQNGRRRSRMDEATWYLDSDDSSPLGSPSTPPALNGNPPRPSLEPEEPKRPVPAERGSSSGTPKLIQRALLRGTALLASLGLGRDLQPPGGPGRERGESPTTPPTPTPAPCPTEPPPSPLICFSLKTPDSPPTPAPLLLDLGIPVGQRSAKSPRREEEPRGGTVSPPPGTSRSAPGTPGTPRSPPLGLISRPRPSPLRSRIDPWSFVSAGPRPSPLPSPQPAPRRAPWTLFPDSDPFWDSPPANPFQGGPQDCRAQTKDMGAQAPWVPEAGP

SMILES | Kd [1] | Kd [2] | Kd [3] | Kd [4] | Kd [5] | Kd [6] | Kd [7] | Kd [8] | Kd [9] | Kd [10]
CCN1CCN(Cc2ccc(NC(=O)Nc3ccc(Oc4cc(NC)ncn4)cc3)cc2C(F)(F)F)CC1 [AST-487] | > 10 µM | > 10 µM |  |  |  |  |  |  |  | 
COCC(=O)NC/C=C/c1ccc2ncnc(Nc3ccc(Oc4ccc(C)nc4)c(C)c3)c2c1 [CP-724714] |  | > 10 µM | > 10 µM | > 10 µM | > 10 µM | > 10 µM | > 10 µM | > 10 µM | > 10 µM | 
Nc1nc(Nc2ccc(S(N)(=O)=O)cc2)nn1C(=O)c1c(F)cccc1F [JNJ-7706621] | > 10 µM | 0.13 µM | > 10 µM |  |  | > 10 µM |  |  |  | > 10 µM
CCOc1cc2ncc(C#N)c(Nc3ccc(F)c(Cl)c3)c2cc1NC(=O)/C=C/CN(C)C [PELITINIB] |  |  | > 10 µM | > 10 µM | > 10 µM |  | > 10 µM | > 10 µM | 1.9 µM | > 10 µM
Oc1ccc(-c2nc(-c3ccncc3)c(-c3ccc(F)cc3)[nH]2)cc1 [SB-202190] | > 10 µM | > 10 µM | > 10 µM | > 10 µM | > 10 µM | 0.79 µM | > 10 µM | > 10 µM | > 10 µM | 0.62 µM
NC(=O)c1ccc(-c2nc(-c3ccc4c(c3)OCO4)c(-c3ccccn3)[nH]2)cc1 [SB-431542] | > 10 µM | > 10 µM | > 10 µM | > 10 µM | > 10 µM | > 10 µM |  | > 10 µM | > 10 µM | 
